Experimental findings from patent US9757364B2, “Naphthyridine derivative compounds” (ASTEX THERAPEUTICS LIMITED, priority 2011, dated 2017) are described below.

Read-outs that look alike come from different tables or passages of the source.

Holding throughout (assay): cells
Assay [1] has as its system Ba/F3-Flt3-transfected cells. The note with it: read-out: BAF3-FLT3 (MIN IL3) pIC50 (converted). As to the method: Ba/F3-Flt3 (Minus IL3 or Plus IL3) (Cellular Proliferation Assay)
(§1) Cells were put in an incubator at 37° C. and 5% CO2.
(§2) As a counterscreen the same experiment was performed in the presence of 10 ng/ml murine IL3.

Assay [2] relates to Ba/F3-KDR-transfected cells. The procedure: Ba/F3-KDR (Minus IL3 or Plus IL3) (Cellular Proliferation Assay)
as §1, §2

Assay [3] concerns Ba/F3-FGFR1-transfected cells. The procedure:
Ba/F3-FGFR1 (Minus IL3 or Plus IL3) (Cellular Proliferation Assay)
as §1, §2

Setting [4] is: read-out: BAF3-KDR (MIN IL3) pIC50 (converted).
Where [5] appears, read: read-out: BAF3-KDR (PLUS IL3) pIC50 (converted).

Take `COc1cc(OC)cc(N(CCO)c2ccc3ncc(-c4cnn(C)c4)cc3n2)c1` [Compound 1]: the IC50 in assay [1] (24 h) was 8.91 µM. Same read-out and setting: the result for `COc1cc(OC)cc(N(CCCO)c2ccc3ncc(-c4cnn(C)c4)cc3n2)c1` [Compound 2] reads > 10 µM; that for `COCCN(c1cc(OC)cc(OC)c1)c1ccc2ncc(-c3cnn(C)c3)cc2n1` [Compound 3], > 10 µM. The same measure, in the same setting: as for `COc1cc(OC)cc(N(CCNC(C)C)c2ccc3ncc(-c4cnn(C)c4)cc3n2)c1` [Compound 4], the figure is 7.94 µM; as for `COc1cc(/N=c2\ccc3ncc(-c4cnn(C)c4)cc3n2CCNC(C)C)cc(OC)c1` [Compound 5], > 10 µM; as for `COc1cc(OC)cc(N(CCN(CCNC(C)C)C(C)C)c2ccc3ncc(-c4cnn(C)c4)cc3n2)c1` [Compound 6], 5.01 µM. Regarding `COc1cc(OC)cc(N(Cc2nccn2S(=O)(=O)N(C)C)c2ccc3ncc(-c4cnn(C)c4)cc3n2)c1` [Compound 7], the IC50 in assay [1] (24 h) was > 10 µM. Regarding `C#CCN(c1cc(OC)cc(OC)c1)c1ccc2ncc(-c3cnn(C)c3)cc2n1` [Compound 8], in assay [1] (24 h), the IC50 is > 10 µM. For `COc1cc(OC)cc(N(Cc2ncc[nH]2)c2ccc3ncc(-c4cnn(C)c4)cc3n2)c1` [Compound 10], the IC50 in assay [1] (24 h) is > 10 µM. Turning to `COc1cc(OC)c(F)c(N(Cc2ncccn2)c2ccc3ncc(-c4cnn(C)c4)cc3n2)c1F` [Compound 14], the IC50 in assay [1] was 7.76 µM. For the molecule `COc1cc(OC)c(F)c(N(CCCO)c2ccc3ncc(-c4cnn(C)c4)cc3n2)c1F` [Compound 22], in assay [1], the IC50 is 3.89 µM. On the same count and under the same terms, as for `COc1cc(OC)c(F)c(N(Cc2ncccn2)c2ccc3ncc(-c4cnn(C)c4)cc3n2)c1` [Compound 27], the figure is > 10 µM; as for `COc1cc(OC)c(F)c(N(Cc2nccn2S(=O)(=O)N(C)C)c2ccc3ncc(-c4cnn(C)c4)cc3n2)c1F` [Compound 64], 2.45 µM. Still for that read-out and setting: as for `COc1cc(OC)c(F)c(N(Cc2ncc[nH]2)c2ccc3ncc(-c4cnn(C)c4)cc3n2)c1F` [Compound 65], the figure is 3.55 µM. Turning to `COc1cc(OC)cc(N(Cc2nccn2S(=O)(=O)N(C)C)c2cc3cc(-c4cnn(C)c4)cnc3cn2)c1` [Compound 66], the IC50 in assay [2] (setting [4]) and in assay [2] (setting [5]) was > 10 µM in each case. On to `COc1cc(OC)cc(N(Cc2ncc[nH]2)c2cc3cc(-c4cnn(C)c4)cnc3cn2)c1` [Compound 67], for which the IC50 in assay [2] (setting [4]) and in assay [2] (setting [5]) was > 10 µM each time. For the molecule `COc1cc(OC)cc(N(CCNC(C)C)c2cc3cc(-c4cnn(C)c4)cnc3cn2)c1` [Compound 68], the IC50 in assay [2] (setting [4]) and in assay [2] (setting [5]) was > 10 µM each time.

Regarding `COCCN(c1cc(OC)cc(OC)c1)c1cc2cc(-c3cnn(C)c3)cnc2cn1` [Compound 69], the IC50 in assay [2] (setting [4]) is > 10 µM; in assay [2] (setting [5]) it was > 10 µM; in assay [3] (read-out: BAF3-FGFR1 (MIN IL3) pIC50 (converted)) it was 8.13 µM; in assay [3] (read-out: BAF3-FGFR1 (PLUS IL3) pIC50 (converted)), > 10 µM. As for `CNCCN(c1cc2cc(-c3cnn(C)c3)cnc2cn1)c1cc(OC)cc(OC)c1F` [Compound 73], the IC50 in assay [2] (setting [4]) and in assay [2] (setting [5]) was > 10 µM throughout. `COc1cc(OC)c(F)c(N(CCCO)c2cc3cc(-c4cnn(C)c4)cnc3cn2)c1` [Compound 75]: the IC50 in assay [2] (setting [4]) and in assay [2] (setting [5]) was > 10 µM each time. Turning to `COc1cc(OC)c(F)c(N(Cc2nccn2S(=O)(=O)N(C)C)c2cc3cc(-c4cnn(C)c4)cnc3cn2)c1` [Compound 76], the IC50 in assay [2] (setting [4]) and in assay [2] (setting [5]) was > 10 µM in each case. Consider `COc1cc(OC)c(F)c(N(Cc2ncc[nH]2)c2cc3cc(-c4cnn(C)c4)cnc3cn2)c1` [Compound 77], for which the IC50 in assay [2] (setting [4]) and in assay [2] (setting [5]) was > 10 µM in each case.
